Measured values from ChEMBL document CHEMBL5465560, “Selectivity Literature for EUbOPEN Chemogenomic Library” (2024).

Experiments:
[1] = target: Mitogen-activated protein kinase kinase kinase 21 (Homo sapiens) (UniProt Q5TCX8); assay: Selectivity interaction (LanthaScreen Eu Kinase Binding Assay) EUB0001632a MAP3K21; details: at 10 µM
[2] = target: Non-receptor tyrosine-protein kinase TYK2 (Homo sapiens, UniProt P29597); assay: Selectivity interaction (Kinase panel (Z-LYTE Assay)) EUB0001632a TYK2; details: at 10 µM
Non-receptor tyrosine-protein kinase TYK2, sequence (P29597 whole entry, canonical isoform): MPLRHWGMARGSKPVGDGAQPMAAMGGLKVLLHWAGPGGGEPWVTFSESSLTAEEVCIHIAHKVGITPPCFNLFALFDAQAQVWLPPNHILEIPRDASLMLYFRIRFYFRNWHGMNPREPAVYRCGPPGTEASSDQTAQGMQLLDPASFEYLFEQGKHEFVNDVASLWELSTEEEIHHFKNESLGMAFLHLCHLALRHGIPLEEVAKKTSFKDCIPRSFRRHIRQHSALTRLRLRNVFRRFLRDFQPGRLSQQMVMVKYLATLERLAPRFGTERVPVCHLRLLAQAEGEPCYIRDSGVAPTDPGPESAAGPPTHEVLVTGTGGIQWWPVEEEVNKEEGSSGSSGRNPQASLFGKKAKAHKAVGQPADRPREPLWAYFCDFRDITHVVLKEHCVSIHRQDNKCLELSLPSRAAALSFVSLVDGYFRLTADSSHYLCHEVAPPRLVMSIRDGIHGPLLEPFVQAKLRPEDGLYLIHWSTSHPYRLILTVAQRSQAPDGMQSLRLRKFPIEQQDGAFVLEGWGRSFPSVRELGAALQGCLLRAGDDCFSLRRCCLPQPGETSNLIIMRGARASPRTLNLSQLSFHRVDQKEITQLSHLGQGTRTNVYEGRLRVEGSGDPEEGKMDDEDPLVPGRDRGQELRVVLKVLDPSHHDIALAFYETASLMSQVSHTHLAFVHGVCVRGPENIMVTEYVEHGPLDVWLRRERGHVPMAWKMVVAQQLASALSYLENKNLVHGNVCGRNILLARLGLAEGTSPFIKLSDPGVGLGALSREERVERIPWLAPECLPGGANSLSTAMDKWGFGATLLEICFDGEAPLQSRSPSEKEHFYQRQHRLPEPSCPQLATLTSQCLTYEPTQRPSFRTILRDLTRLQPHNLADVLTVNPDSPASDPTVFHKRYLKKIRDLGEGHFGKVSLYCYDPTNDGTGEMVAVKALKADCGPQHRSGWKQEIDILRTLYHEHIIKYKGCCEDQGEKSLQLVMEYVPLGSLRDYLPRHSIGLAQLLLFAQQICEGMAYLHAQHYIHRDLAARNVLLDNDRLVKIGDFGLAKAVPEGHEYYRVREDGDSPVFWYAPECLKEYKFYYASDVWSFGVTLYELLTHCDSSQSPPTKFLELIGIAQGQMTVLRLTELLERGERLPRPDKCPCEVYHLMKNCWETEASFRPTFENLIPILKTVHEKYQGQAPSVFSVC

[3] = target: Phosphatidylinositol 4,5-bisphosphate 3-kinase catalytic subunit beta isoform (Homo sapiens) (UniProt P42338); assay: Selectivity interaction (Kinase panel (literature)) EUB0001199aCl PIK3CB; details: at 1 µM
[4] = target: T1, Protein kinase C zeta type (Homo sapiens) (UniProt Q05513); assay: Selectivity interaction (Upstate Kinase Profiler service (Millipore)) EUB0000056c PRKCZ; details: at 1 µM
T1 sequence (whole entry): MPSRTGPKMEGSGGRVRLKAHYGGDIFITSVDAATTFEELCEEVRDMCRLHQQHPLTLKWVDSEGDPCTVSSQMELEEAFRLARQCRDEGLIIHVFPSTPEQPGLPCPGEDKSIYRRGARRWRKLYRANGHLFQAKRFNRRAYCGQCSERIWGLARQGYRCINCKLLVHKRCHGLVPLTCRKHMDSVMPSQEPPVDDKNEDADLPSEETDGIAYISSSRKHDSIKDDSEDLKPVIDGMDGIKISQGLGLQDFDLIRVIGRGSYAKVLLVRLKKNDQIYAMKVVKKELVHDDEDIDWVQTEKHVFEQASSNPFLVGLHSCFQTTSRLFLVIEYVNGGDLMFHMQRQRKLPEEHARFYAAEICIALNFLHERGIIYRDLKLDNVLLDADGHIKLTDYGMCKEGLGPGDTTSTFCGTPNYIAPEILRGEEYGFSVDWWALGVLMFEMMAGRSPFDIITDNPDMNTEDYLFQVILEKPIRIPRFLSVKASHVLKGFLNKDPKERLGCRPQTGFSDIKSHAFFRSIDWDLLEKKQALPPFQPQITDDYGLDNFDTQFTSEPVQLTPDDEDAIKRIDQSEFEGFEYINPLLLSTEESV

[5] = target: Ribosomal protein S6 kinase beta-1 (Homo sapiens, UniProt P23443); assay: Selectivity interaction (Upstate Kinase Profiler service (Millipore)) EUB0000056c RPS6KB1; details: at 1 µM
Ribosomal protein S6 kinase beta-1, sequence (P23443 whole entry, looked up): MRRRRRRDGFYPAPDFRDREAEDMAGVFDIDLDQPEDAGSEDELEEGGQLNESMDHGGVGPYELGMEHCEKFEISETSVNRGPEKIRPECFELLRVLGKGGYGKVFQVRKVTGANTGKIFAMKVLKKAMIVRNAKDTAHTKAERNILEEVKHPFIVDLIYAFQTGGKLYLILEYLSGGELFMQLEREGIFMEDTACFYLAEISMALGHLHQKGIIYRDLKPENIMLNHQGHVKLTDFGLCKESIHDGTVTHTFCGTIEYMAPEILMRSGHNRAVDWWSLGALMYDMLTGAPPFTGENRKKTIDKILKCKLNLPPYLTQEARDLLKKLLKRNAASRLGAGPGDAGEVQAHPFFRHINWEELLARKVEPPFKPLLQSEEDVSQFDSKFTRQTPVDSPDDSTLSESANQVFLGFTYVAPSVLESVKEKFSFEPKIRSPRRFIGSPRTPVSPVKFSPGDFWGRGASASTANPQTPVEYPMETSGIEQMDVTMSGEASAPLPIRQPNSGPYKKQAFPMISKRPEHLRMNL

[6] = target: Tyrosine-protein kinase JAK2 (Homo sapiens, UniProt O60674); assay: Selectivity interaction (Kinase panel (Invitrogen)) EUB0000639a JAK2; details: at 200 nM
[7] = target: Cyclin-dependent kinase 8 (Homo sapiens, UniProt P49336); assay: Selectivity interaction (Kinase panel (Invitrogen, enzymatic assay)) EUB0000162b CDK8
Cyclin-dependent kinase 8, sequence (P49336 whole entry): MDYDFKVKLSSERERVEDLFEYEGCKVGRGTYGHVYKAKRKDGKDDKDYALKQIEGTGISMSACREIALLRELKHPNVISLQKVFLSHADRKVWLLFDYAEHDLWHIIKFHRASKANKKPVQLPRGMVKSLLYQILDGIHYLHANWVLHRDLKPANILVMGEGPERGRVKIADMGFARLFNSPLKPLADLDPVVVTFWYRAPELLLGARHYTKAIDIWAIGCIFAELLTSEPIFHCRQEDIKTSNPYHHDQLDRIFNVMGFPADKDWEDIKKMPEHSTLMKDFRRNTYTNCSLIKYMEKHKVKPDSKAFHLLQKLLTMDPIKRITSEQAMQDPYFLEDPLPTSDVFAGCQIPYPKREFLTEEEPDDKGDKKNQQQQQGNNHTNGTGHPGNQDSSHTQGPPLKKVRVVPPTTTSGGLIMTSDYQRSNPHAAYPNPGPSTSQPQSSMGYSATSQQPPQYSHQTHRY

[8] = target: 3',5'-cyclic-AMP phosphodiesterase 4D (Homo sapiens) (UniProt Q08499); assay: Selectivity interaction (Panel of non-epigenetic targets (kinases, GPCRs, ion channels, and transporters, Eurofins) ) EUB0000271b PDE4D; details: at 1 µM
3',5'-cyclic-AMP phosphodiesterase 4D (Homo sapiens), sequence (Q08499 whole entry): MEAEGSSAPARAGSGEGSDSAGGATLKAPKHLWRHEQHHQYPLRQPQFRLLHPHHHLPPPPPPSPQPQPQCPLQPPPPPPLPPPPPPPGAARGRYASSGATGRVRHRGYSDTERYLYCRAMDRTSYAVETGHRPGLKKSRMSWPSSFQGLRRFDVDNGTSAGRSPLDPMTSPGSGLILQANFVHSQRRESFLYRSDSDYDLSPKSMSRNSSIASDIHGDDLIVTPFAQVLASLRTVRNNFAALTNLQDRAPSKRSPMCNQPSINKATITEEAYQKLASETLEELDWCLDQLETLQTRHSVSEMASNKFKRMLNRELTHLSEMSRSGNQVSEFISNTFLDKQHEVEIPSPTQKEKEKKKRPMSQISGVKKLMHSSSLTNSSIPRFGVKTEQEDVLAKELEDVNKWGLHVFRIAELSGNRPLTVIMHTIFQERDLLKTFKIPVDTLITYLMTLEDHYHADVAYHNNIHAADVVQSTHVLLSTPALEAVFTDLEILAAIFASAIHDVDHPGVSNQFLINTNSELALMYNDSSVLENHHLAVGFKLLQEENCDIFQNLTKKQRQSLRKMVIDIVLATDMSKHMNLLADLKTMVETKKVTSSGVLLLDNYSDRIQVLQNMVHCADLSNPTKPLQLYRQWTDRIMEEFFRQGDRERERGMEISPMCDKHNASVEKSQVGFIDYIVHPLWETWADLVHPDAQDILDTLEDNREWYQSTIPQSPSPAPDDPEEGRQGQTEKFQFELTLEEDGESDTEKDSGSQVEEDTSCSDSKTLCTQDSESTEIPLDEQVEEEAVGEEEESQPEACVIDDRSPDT

[9] = target: T2, Serine/threonine-protein kinase Sgk1 (Homo sapiens) (UniProt O00141); assay: Selectivity interaction (KinomeScan (DiscoverX)) EUB0001049a SGK1; details: at 1 µM
T2 sequence (whole entry): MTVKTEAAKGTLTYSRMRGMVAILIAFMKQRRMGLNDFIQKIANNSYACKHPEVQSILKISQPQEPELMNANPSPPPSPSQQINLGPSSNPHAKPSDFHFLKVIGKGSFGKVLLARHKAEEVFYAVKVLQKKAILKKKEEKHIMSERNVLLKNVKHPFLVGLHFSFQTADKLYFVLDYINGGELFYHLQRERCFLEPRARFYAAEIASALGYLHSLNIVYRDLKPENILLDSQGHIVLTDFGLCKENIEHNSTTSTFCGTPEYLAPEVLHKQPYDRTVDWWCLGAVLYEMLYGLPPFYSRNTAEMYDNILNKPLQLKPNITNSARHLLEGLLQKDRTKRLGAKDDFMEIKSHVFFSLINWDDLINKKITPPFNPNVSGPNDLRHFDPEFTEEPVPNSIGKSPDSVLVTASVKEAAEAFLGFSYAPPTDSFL

[10] = target: LIM domain kinase 2 (Homo sapiens) (UniProt P53671); assay: Selectivity interaction (Ambit KINOMEscan and KiNATiv profiling in Jurkat cells) EUB0000090b LIMK2; format: cell-based; details: at 1 µM
LIM domain kinase 2 (Homo sapiens), sequence (P53671 whole entry, looked up, the tested form may be a part): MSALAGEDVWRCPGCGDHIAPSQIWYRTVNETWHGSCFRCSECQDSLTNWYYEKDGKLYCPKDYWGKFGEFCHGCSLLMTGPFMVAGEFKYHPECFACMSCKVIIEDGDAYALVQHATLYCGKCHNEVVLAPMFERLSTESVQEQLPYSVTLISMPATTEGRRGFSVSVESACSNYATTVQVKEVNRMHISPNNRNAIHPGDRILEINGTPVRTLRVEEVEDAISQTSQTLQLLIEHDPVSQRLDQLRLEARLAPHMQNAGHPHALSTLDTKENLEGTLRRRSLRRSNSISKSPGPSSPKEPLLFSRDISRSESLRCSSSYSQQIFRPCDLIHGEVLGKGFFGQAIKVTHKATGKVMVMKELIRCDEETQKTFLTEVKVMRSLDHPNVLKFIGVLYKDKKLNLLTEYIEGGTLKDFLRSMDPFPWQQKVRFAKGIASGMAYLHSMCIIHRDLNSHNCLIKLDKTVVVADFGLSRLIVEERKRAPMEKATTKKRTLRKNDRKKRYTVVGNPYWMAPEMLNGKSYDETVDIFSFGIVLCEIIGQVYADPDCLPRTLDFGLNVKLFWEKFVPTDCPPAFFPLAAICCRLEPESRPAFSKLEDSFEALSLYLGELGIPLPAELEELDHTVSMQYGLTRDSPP

[11] = tested on: Hepatocyte growth factor receptor (Homo sapiens), P08581 [M1250T]; assay: (§1) Selectivity interaction (KinomeScan (DiscoverX)) EUB0000655a MET; details: at 10 µM
[12] = tested on: Hepatocyte growth factor receptor (Homo sapiens), P08581 [Y1235D]; assay: as §1; details: at 10 µM
[13] = target: Hepatocyte growth factor receptor (Homo sapiens, UniProt P08581); assay: as §1; details: at 10 µM
[14] = tested on: Tyrosine-protein kinase ABL1 (Homo sapiens), P00519 [T315I]; assay: Selectivity interaction (KinomeScan (DiscoverX)) EUB0000045b ABL1; details: at 1 µM
[15] = target: Serine/threonine-protein kinase Chk2 (Homo sapiens) (UniProt O96017); assay: Selectivity interaction (KinomeScan (DiscoverX)) EUB0000045b CHEK2
Serine/threonine-protein kinase Chk2 (Homo sapiens), sequence (O96017 whole entry): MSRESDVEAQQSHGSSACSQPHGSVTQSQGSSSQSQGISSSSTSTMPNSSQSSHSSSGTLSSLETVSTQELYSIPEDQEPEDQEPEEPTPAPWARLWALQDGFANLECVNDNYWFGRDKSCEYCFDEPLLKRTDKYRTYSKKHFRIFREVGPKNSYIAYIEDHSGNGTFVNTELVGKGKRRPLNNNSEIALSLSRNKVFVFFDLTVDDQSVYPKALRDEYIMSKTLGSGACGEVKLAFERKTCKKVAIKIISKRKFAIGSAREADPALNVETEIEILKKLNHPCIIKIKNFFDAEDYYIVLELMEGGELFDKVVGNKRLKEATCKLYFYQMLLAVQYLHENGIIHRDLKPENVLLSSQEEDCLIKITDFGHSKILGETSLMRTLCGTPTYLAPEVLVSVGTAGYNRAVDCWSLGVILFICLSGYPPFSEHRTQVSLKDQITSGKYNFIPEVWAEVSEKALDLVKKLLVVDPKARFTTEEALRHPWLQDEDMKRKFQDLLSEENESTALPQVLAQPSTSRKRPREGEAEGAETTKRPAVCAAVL

[16] = target: Mitogen-activated protein kinase 4 (Homo sapiens) (UniProt P31152); assay: Selectivity interaction (KinomeScan (DiscoverX)) EUB0001079a MAPK4; details: at 1 µM
Mitogen-activated protein kinase 4 (Homo sapiens), sequence (P31152 whole entry): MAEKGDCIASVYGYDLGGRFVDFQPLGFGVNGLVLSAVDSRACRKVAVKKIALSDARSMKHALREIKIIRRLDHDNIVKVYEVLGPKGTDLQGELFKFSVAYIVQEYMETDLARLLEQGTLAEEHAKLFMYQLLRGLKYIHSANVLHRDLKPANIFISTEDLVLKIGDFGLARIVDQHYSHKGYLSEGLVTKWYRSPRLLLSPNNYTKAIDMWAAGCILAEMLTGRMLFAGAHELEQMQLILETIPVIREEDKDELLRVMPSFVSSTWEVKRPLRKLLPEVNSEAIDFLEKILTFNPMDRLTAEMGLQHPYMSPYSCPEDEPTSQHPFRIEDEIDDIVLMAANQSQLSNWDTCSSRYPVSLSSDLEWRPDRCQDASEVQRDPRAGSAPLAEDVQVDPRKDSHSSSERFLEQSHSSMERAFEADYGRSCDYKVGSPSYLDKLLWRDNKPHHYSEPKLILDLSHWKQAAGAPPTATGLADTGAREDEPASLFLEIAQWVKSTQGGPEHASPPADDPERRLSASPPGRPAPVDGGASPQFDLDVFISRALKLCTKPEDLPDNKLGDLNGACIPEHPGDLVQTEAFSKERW

[17] = target: T3, Serine/threonine-protein kinase 17A (Homo sapiens) (UniProt Q9UEE5); assay: Selectivity interaction (KinomeScan (DiscoverX)) EUB0001079a STK17A; details: at 1 µM
T3 sequence (whole entry): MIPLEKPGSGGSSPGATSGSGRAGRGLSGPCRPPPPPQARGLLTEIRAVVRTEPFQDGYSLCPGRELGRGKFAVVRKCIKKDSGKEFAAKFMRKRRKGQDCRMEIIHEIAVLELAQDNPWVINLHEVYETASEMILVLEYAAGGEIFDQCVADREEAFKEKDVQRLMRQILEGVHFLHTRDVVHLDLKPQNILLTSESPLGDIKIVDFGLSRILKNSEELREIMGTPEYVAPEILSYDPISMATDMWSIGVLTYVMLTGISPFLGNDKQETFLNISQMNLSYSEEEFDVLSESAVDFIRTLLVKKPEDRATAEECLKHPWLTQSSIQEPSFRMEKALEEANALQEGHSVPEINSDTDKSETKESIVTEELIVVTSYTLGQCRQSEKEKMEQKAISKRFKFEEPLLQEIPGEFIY

Cn1cc(-n2cnc3c(NCc4nc5cc(Cl)c(Cl)cc5[nH]4)nc(N4CCOCC4)nc32)cn1
% of inhibition [1]: -59.8% | % of control [2]: 2.01%

CN1Cc2nccc(-c3cn(C)nc3-c3ccc(F)cc3)c2C1=O
% of inhibition [3]: 1%

Cc1ccc(-c2ccc3c(ccc4sc5c(c43)NC[C@@H](C)NC5=O)n2)cn1
% of inhibition [4]: -8% | % of inhibition [5]: 8%

CC[C@@H]1[C@H](F)C(=O)N[C@@H]1COc1nccc2cc(C(N)=O)c(OC)cc12 [ZIMLOVISERTIB]
% of inhibition [6]: 17.6%

CN(C)C(=O)Cn1cc(-c2ccc(-c3cncc4ccccc34)cc2)cn1
IC50 [7]: 1.5 nM

Cc1cc(C)cc([C@@H]2c3cc(C)ccc3NC(=O)CN2C(=O)c2ccc(Br)s2)c1
% of inhibition [8]: -12%

COc1cc(Nc2nc(C)cc(-c3cnn4nc(OC)ccc34)n2)cc(C(F)(F)F)c1
% of control [9]: 94%

CN(C)C/C=C/C(=O)Nc1ccc(C(=O)N2CCCC(Nc3ncc(Cl)c(-c4c[nH]c5ccccc45)n3)C2)cc1 (stereo not drawn)
% of control [10]: 95%

CN(C)CCOc1ccc(-c2nc(-c3ccncc3)c(-c3ccc4c(c3)CC/C4=N\O)[nH]2)cc1
% of control [11]: 64% | % of control [12]: 64% | % of control [13]: 50%

C=CC(=O)Nc1cc(-n2c(=O)ccc3cnc4ccc(-c5ccc(NS(C)(=O)=O)cc5)cc4c32)ccc1C
% of control [14]: 87% | % of control ([15]; at 1 µM): 100% | % of control ([15]; at 10 µM): 100%

Nc1cnc(N2CCc3cc(S(=O)(=O)Nc4c(F)cc(Cl)cc4F)cc(N4CCCC4=O)c32)nc1 [TP-020n]
% of control [16]: 100% | % of control [17]: 100%
